Measured values reported in BigSolDB 2.1.

Conditions: 298.15 K

O=C(O)c1ccc(Cl)c(Cl)c1
Conditions	solubility (mole fraction)
in 1,4-dioxane	0.0493
in 2-butoxyethanol	0.0399
in 2-ethoxyethanol	0.0445
in 2-isopropoxyethanol	0.0483
in 2-methyl-1-butanol	0.0183
in 2-methyl-1-pentanol	0.0239
in 2-pentanol	0.0248
in 2-propoxyethanol	0.0468
in 3-methoxy-1-butanol	0.0503
in 4-methyl-2-pentanol	0.0255
in MTBE	0.0358
in THF	0.101
in dibutyl ether	0.00969
in diethyl ether	0.0308
in diisopropyl ether	0.0126
in ethanol	0.0173
in ethyl acetate	0.0164
in isobutanol	0.0139
in isopentanol	0.0216
in isopropanol	0.0177
in methyl acetate	0.0119
in methyl butyrate	0.0143
in n-butanol	0.0203
in n-butyl acetate	0.0206
in n-heptanol	0.0251
in n-hexanol	0.0238
in n-octanol	0.0242
in n-pentanol	0.0218
in n-pentyl acetate	0.0216
in n-propanol	0.0185
in n-propyl acetate	0.0176
in sec-butanol	0.019
in tert-butanol	0.0345
